Results taken from patent US20170189417A1, “PHARMACEUTICAL COMPOSITION FOR TREATING COLORECTAL CANCER” (MA SHEN KAI RUEI CO., LTD., priority 2015, published 2017).
Entries after “also recorded” stand apart in the source; their conditions may differ.

Experiments:
[1] = tested on: human colorectal-cancer cells HT-29; experiment: MTT ex vivo survival assay, HT-29; format: cell-based; conditions: HT-29 cell line; for half-maximal inhibitory concentration (IC50): isolated agents, stated in words only
Procedure: (§1) The Antroquinonol B (AnQB) and Zhankuic acid D (ZhAD) separately isolated from the Extraction A of Example 1 were added into the culture media of human colorectal-cancer cells, HT-29 or SW-480, to test for tumor cell survival by using anti-cancer drug screen model. This survival assay was carried out with the widely known MTT (3-[4,5-dimethylthiazol-2-yl]2,5-diphenyltetrazolium bromide) assay.
(§2) HT-29 cell line (purchased from ATCC) is a human colorectal adenocarcinoma cell line with epithelial morphology. These cells are sensitive to the chemotherapeutic drugs 5-fluorouracil and oxaliplatin, which are standard treatment options for colorectal cancer. In addition to being a xenograft tumor model for colorectal cancer, the HT-29 cell line is also used as an in-vitro model to study survival assay. And the other one, SW-480 is Dukes' type B, colorectal adenocarcinoma which is a difficult tumor with a low survival rate.
(§3) The human colorectal-cancer cells, HT-29 and SW-480 were cultivated in media containing fetal calf serum for 18 hours. The proliferated cells were washed once with PBS, then treated with 1× trypsin-EDTA and centrifuged at 1200 rpm for 45 minutes. The supernatant was discarded and the cell pellet was re-suspended in […] of fresh culture medium by gently shaking. The cells were placed in a 96-well plate.
(§4) Subsequently, the plates were read on an ELISA reader to determine the survival rates. The half maximal inhibitory concentration (IC50) values were calculated and results of ex vivo survival assay were thus obtained.
(§5) By using the same manner as the method described above, respectively human colorectal cancer cell line HT-29 and Sw-480 was cultured. After then, the pharmaceutical compositions A˜F of the present invention was applied separately, and then MTT assay for each sample was measured to assess the inhibition effectiveness of various cancer cell activity while using pharmaceutical compositions A˜F of the present invention.

[2] = tested on: human colorectal-cancer cells SW-480; experiment: MTT ex vivo survival assay, SW-480; format: cell-based; conditions: SW-480 cell line; for half-maximal inhibitory concentration (IC50): isolated agents, stated in words only
Procedure: as §1, §2, §3, §4, §5

Compound | tumor cell survival rate / growth inhibition (MTT assay) [1] | half-maximal inhibitory concentration (IC50) [1] | tumor cell survival rate / growth inhibition (MTT assay) [2] | half-maximal inhibitory concentration (IC50) [2]
C=C(CC[C@@H](C(=O)O)[C@H]1CC[C@@]2(C)C3=CC[C@H]4C(C)(C)[C@@H](O)CC[C@]4(C)C3=CC[C@]12C)C(C)C | can inhibit the growth of colorectal cancer cell; also recorded: can decrease the survival rates | relatively low | can inhibit the growth of colorectal cancer cell; also recorded: can decrease the survival rates | relatively low
COC1=C(OC)[C@H](O)[C@H](C/C=C(\C)CC/C=C(/C)C/C=C/C(C)(C)O)[C@@H](C)C1=O [Antroquinonol B] | can inhibit the growth of colorectal cancer cell; also recorded: can decrease the survival rates | relatively low | can inhibit the growth of colorectal cancer cell; also recorded: can decrease the survival rates | relatively low
